Earlier results on 1 compound are cited in patent US9050351B2, “Topical compositions designed to maintain or restore the integrity of the mucous membranes” (RICEFARMA S.R.L., priority 2010, dated 2015).

For data set [1] the following is noted: as disclosed in WO93/19730.

As for `C[N+](C)(C)CCOP(=O)([O-])OC[C@H](O)CO` [choline alfoscerate, L-alpha-glycerylphosphorylcholine], the “solubility in water and ethanol” value was “highly soluble”. In addition, in data set [1], the “incidence of skin irritation, eye irritation and skin sensitisation” value is “low”; the systemic toxicity entry is “practically devoid”; the topical tolerability entry is on record as “marked”.
